Results taken from US11053205B2, “Phenazine derivatives as antimicrobial agents” (University of Florida Research Foundation, Incorporated, priority 2017, dated 2021).
Values after ≈ are worked out from the molar mass of the structure shown. Like-named read-outs stand apart in the source and are kept apart here. Marks after values point to notes of the source that are not given here.

Experiments:
[1] = test system: MRSE 35984 biofilms; assay: Live/Dead staining of biofilms; type: cell-based, Staphylococcus epidermidis; settings: 0.1, 5, and 10 μM, 24 hours
Protocol: (§1) A mid-log culture of MRSE 35894 was diluted 1:1,000-fold and 500 μL was transferred to each compartment of a 4 compartment CELLview dish (Greiner Bio-One 627871). The dish was then incubated for 24 hours at 37° C. After this time, the cultures were removed and the plate was washed with 0.9% saline. The dish was then treated with the compounds in fresh media at various concentrations. DMSO was used as the negative control in this assay. The dish was incubated with the compound for 24 hours at 37° C. After this time, the cultures were removed and the dish was washed with 0.9% saline for 2 minutes. Saline was then removed and 500 μL of the stain (Live/Dead BacLight Viability Kit, Invitrogen) were added for 15 minutes and left in the dark. After this time, the stain was removed and the dish was washed twice with 0.9% saline. Then the dish was fixed with 500 μL 4% paraformaldehyde in PBS for 30 minutes. Images of remaining MRSE biofilms were then taken with a fluorescence microscope. All data were analyzed using Image J software from three independent experiments.
Following biofilm eradication investigations in CBD assays, lead HP 61A was tested against biofilms of MRSE 35984 in live/dead staining experiments (FIG. 30B). After a 24-hour biofilm establishment, HP 61A was added at 0.1, 5, and 10 μM then left to incubate against MRSE 35984 biofilms for an additional 24 hours at 37° C.

[2] = test system: HeLa cells
[3] = test system: MRSA BAA-1707; assay: MIC, broth microdilution (CLSI); settings: 16 to 18 hours at 37° C.; 0.10 = lowest concentration tested
[4] = test system: MRSE 35984; assay: MIC, broth microdilution (CLSI); settings: 16 to 18 hours at 37° C.
[5] = test system: VRE 700221; assay: MIC, broth microdilution (CLSI); settings: for VRE 700221 MIC: 16 to 18 hours at 37° C.; for MIC: Enterococcus, VRE
[6] = test system: MRSA BAA-1707 biofilms; assay: Calgary Biofilm Device (CBD) assay, MBC/MBEC; settings: for MRSA BAA-1707 MBEC: biofilm eradication
[7] = test system: MRSA-1707 biofilms; assay: CBD pulse experiments (two sequential 24 hour treatments); type: cell-based, Staphylococcus aureus; settings: two sequential 24 hour compound treatments
[8] = test system: VRE 700221 biofilms; assay: Calgary Biofilm Device (CBD) assay, MBC/MBEC; settings: for VRE 700221 MBEC: biofilm eradication
[9] = test system: M. tuberculosis H37Ra (ATCC 25177); assay: MIC assay for Mycobacterium tuberculosis; type: cell-based; settings: Mycobacterium tuberculosis, 168 h; seven days at 37° C.; read-out: MtB H37Ra MIC
Protocol: (§2) The culture was then diluted with fresh medium until an OD600 of 0.01 was reached. […] The final DMSO concentration was maintained at 0.5%. […] Three rows were reserved for each compound. […] OD600 absorbance was recorded using SPECTRAMAX M5 (Molecular Devices). Data obtained from three independent experiments were analyzed using Excel.
as §2, with “SpectraMax” for “SPECTRAMAX”

[10] = UV-Vis metal(II) binding; type: physicochemical; settings: kinetics of UV-Vis experiments
Protocol: Spectral scanning was performed from 200 to 800 nm in 2 nm increments.

[11] = test system: MRSA-1707 biofilms; assay: Live/Dead staining of biofilms; type: cell-based, Staphylococcus aureus; settings: 0.1, 1 and 5 μM, 24 hours
Protocol: as §1, with “To support the CBD assay findings, LIVE/DEAD experiments were performed with potent Compound 27 (FIG. 7). A mid-log” for “A mid-log”, “culture of MRSA-2 was diluted” for “culture of MRSE 35894 was diluted”, “4 compartment […] dish (Greiner” for “4 compartment CELLview dish (Greiner”, “stain was removed, and the” for “stain was removed and the”, “of remaining MRSA-2 biofilms were” for “of remaining MRSE biofilms were”, “Image J software.” for “Image J software from three independent experiments.”
HP 1-17 was tested against MRSA-1707 biofilms in live/dead staining experiments. […] After this time, images of the treated and untreated MRSA-1707 biofilms were obtained using fluorescence microscopy (FIG. 20).

[12] = test system: human red blood cells; settings: human, 1 h, 200 μM, pH 7.2
[13] = test system: MRSA-1; assay: MIC, broth microdilution (CLSI); settings: Staphylococcus aureus, MRSA, read-out: MRSA-1 MIC
[14] = test system: MRSA, MRSE and VRE biofilms; assay: CBD assays against MRSA, MRSE, and VRE biofilms (all strains); settings: strains not given
[15] = LDH release assay for HeLa cytotoxicity; settings: human, HeLa cells
[16] = test system: HeLa cells; assay: LDH release assay for HeLa cytotoxicity
[17] = test system: S. epi 12228; assay: MIC, broth microdilution (CLSI); settings: Staphylococcus epidermidis, 12228, read-out: S. epi 12228 MIC
[18] = test system: human red blood cells; assay: Hemolysis assay with red blood cells; settings: 1 hour at 37° C.
[19] = test system: MRSA-2 biofilms; assay: Calgary Biofilm Device (CBD) assay, MBC/MBEC
[20] = test system: MRSA BAA-44 biofilms; assay: Calgary Biofilm Device (CBD) assay, MBC/MBEC; settings: biofilm eradication
[21] = test system: MRSE 35984 biofilms; assay: Calgary Biofilm Device (CBD) assay, MBC/MBEC; settings: Staphylococcus epidermidis, MRSE, read-out: MRSE 35984 MBC

In the case of `Oc1c(Br)cc(Br)c2nc3cc(Cl)ccc3nc12` [61A], the “biofilm eradication and clearance (live/dead staining)” value [1] is reported as “highly potent eradication and clearance of MRSE 35984 biofilms”, the IC50 [2] is reported as greater than 100 µM and the “MRSA BAA-1707 MIC” value [3] is reported as 0.038 µM. For the same molecule, the “MRSE 35984 MIC” value [4] was 0.1 µM, the “VRE 700221 MIC” value [5] was 0.39 µM and the “MRSA BAA-1707 MBEC” value ([6]; CBD) was 4.69 µM.
In the case of `CCCCCCCCCCCCCCCC[N+](C)(C)Cc1ccccc1.[Cl-]` [BAC-16, reference compound], the “MBEC (pulse treatment)” value [7] is reported as 25 µM, the “MRSA BAA-1707 MIC” value [3] is reported as 1.56 µM and the “MRSE 35984 MIC” value [4] is reported as 1.56 µM. For the same molecule, the “VRE 700221 MIC” value [5] was 3.13 µM, the “MRSA BAA-1707 MBEC” value ([6]; CBD) was 15.6 µM and the “MRSA BAA-1707 MBC” value ([6]; CBD, planktonic killing) was 31.3 µM. The “VRE 700221 MBEC” value ([8]; CBD) was 3.0 µM and the “VRE 700221 MBC” value ([8]; CBD, planktonic killing) was 5.9 µM.
For `Cc1cccc2nc3c(O)c(Br)cc(Br)c3nc12` [HP 1-17], the MIC [9] was 25 µM (≈ 9.2 µg/mL), the “rate of copper(II) chelation” value [10] was “faster rate than HP 1” and the “biofilm eradication and clearance (live/dead staining)” value [11] was “potent biofilm eradication and clearance response”. The “Hemolysis at 200 μM” value [12] was 6.7% and the MIC [13] was 0.1 µM (≈ 0.0368 µg/mL).
With `CCc1cccc2nc3c(O)c(Br)cc(Br)c3nc12` [HP 1-18] the MIC [9] was 25 µM (≈ 9.55 µg/mL), the “Hemolysis at 200 μM” value [12] was 1.7% and the “MRSA BAA-1707 MIC” value [3] was 0.10^c μM. For the same molecule, the “MRSE 35984 MIC” value [4] was 0.10^c μM, the MIC ([5]; read-out: VRE 700221 MIC, 16 to 18 hours at 37° C.) was 0.15 to 1.56 µM (≈ 0.0573 to 0.596 µg/mL) and the MBEC [14] was 0.59 to 2.35 µM.
For `Oc1c(Br)cc(Br)c2nc3c(Br)cccc3nc12` [HP 1-23], the MIC [9] was 25 µM (≈ 10.8 µg/mL), the “Hemolysis at 200 μM” value [12] was 5.1% and the IC50 at 24 h [15] was greater than 100 µM. For the same molecule, the “selectivity index (HeLa IC50 to MRSA BAA-1707 MIC)” value [16] was > 2,000 fold.
In the case of `CN[C@H](CC(C)C)C(=O)N[C@H]1C(=O)N[C@@H](CC(N)=O)C(=O)N[C@H]2C(=O)N[C@H]3C(=O)N[C@H](C(=O)N[C@H](C(=O)O)c4cc(O)cc(O)c4-c4cc3ccc4O)[C@H](O)c3ccc(c(Cl)c3)Oc3cc2cc(c3O[C@@H]2O[C@H](CO)[C@@H](O)[C@H](O)[C@H]2O[C@H]2C[C@](C)(N)[C@H](O)[C@H](C)O2)Oc2ccc(cc2Cl)[C@H]1O` [vancomycin, reference compound], the MIC [17] is reported as 1.17 µM (≈ 1.7 µg/mL), the MIC ([5]; read-out: VRE 700221 MIC) is reported as greater than 100 µM and the “Hemolysis at 200 μM” value [18] is reported as no more than 1%. The MBC ([6]; Staphylococcus aureus, read-out: MRSA BAA-1707 MBC) was 3.9 µM (≈ 5.65 µg/mL), the “biofilm eradication activities against MRSA biofilms” value ([6]; at 2,000 μM (highest concentration tested)) was “no biofilm eradication activities” and the “MRSA-2 MBEC” value ([19]; CBD, biofilm eradication) was greater than 2000 µM. The MBC ([19]; Staphylococcus aureus, MRSA, read-out: MRSA-2 MBC) was 3 µM (≈ 4.35 µg/mL), the “MRSA BAA-44 MBEC” value [20] was greater than 2000 µM and the MBC [21] was 3 µM (≈ 4.35 µg/mL). The “VRE 700221 MBEC” value ([8]; CBD) was 150 µM and the MBC ([8]; Enterococcus, VRE, read-out: VRE 700221 MBC) was greater than 200 µM.
